Source: patent publication US20070128217A1 (priority 2003, published 2007)

What was measured:
[1] = system: antibodies in sera from SARS patients (sera 1a, 1b, 2, 6, 37, 62, London, SARS-yellow, SARS-green); format: binding, human; design: Binding of serum 6 to linear peptides of protein X1 of SARS-CoV Urbani / Binding of serum 37 to linear peptides of protein X1 of SARS-CoV Urbani / Binding of serum 6 to looped/cyclic peptide (PEPSCAN-ELISA) / Binding of serum 37 to looped/cyclic peptide (PEPSCAN-ELISA) / Binding of serum 37 to looped/cyclic peptides of protein X1 of SARS-CoV Urbani / Binding of serum 6 to linear peptides of protein X2 / Binding of serum 37 to linear peptides of protein X2 / Binding of serum 37 to looped/cyclic peptides of protein X2 of SARS-CoV Urbani / Binding of serum 6 to linear peptides of protein M of SARS-CoV Urbani / Binding of serum 37 to linear peptides of protein M of SARS-CoV Urbani / Binding of serum 6 to looped/cyclic peptides of protein M of SARS-CoV Urbani / Binding of serum 37 to looped/cyclic peptides of protein M of SARS-CoV Urbani / Binding of serum 6 to linear peptides of protein X3 of SARS-CoV Urbani / Binding of serum 37 to linear peptides of protein X3 of SARS-CoV Urbani / Binding of serum 37 to looped/cyclic peptides of protein X3 of SARS-CoV Urbani / Binding of serum 6 to linear peptides of protein X4 of SARS-CoV Urbani / Binding of serum 37 to linear peptides of protein X4 of SARS-CoV Urbani / Binding of serum 37 to looped/cyclic peptides of protein X4 of SARS-CoV Urbani / Binding of serum 6 to linear peptides of protein X5 of SARS-CoV Urbani / Binding of serum 37 to linear peptides of protein X5 of SARS-CoV Urbani / Binding of serum 37 to looped/cyclic peptides of protein X5 of SARS-CoV Urbani / Binding of serum 6 to linear peptides of protein N of SARS-CoV Urbani / Binding of serum 37 to linear peptides of protein N of SARS-CoV Urbani / Binding of serum 6 to linear peptide (PEPSCAN-ELISA) / Binding of serum 1a to looped/cyclic peptides of protein N of SARS-CoV Urbani / Binding of serum 1b to looped/cyclic peptides of protein N of SARS-CoV Urbani / Binding of serum 2 to looped/cyclic peptides of protein N of SARS-CoV Urbani / Binding of serum 6 to looped/cyclic peptides of protein N of SARS-CoV Urbani / Binding of serum 37 to looped/cyclic peptides of protein N of SARS-CoV Urbani / Binding of serum 62 to looped/cyclic peptides of protein N of SARS-CoV Urbani / Binding of serum London to looped/cyclic peptides of protein N of SARS-CoV Urbani / Binding of serum SARS-green to looped/cyclic peptides of protein N of SARS-CoV Urbani: unit not given here
[2] = system: control sera (pooled serum of ten healthy LUMC hospital workers; commercial negative donor pooled serum from the Dutch bloodbank); format: binding, human; design: Binding of Control serum LUMC to linear peptides / Binding of Control serum Blood-bank to linear peptides / Binding of Control serum LUMC to looped peptides / Binding of Control Serum Blood-Bank to Looped peptides / Binding of Control serum LUMC to linear peptides of the protein M of SARS-CoV Urbani / Binding of Control serum Blood-bank to linear peptides of the protein M of SARS-CoV Urbani / Binding of Control serum LUMC to looped peptides of the protein M of SARS-CoV Urbani / Binding of Control Serum Blood-Bank to Looped peptides of the protein M of SARS-CoV Urbani: unit not given here
[3] = system: rabbit serum obtained by immunizing a rabbit with the SARS-CoV strain Frankfurt 1; format: binding; design: Binding of a rabbit serum to linear peptides / Binding of a rabbit serum to looped peptides / Rabbit serum linear peptides / Rabbit serum looped peptides / Binding of a rabbit serum to linear peptides of protein N of SARS-CoV Urbani (Rabbit serum linear peptides) / Binding of a rabbit serum to looped/cyclic peptides of protein N of SARS-CoV Urbani (Rabbit serum looped peptides): unit not given here
[4] = system: recombinant human anti-SARS-CoV antibody 03-018; format: binding; design: Binding of antibody 03-018 to linear peptides of the N protein of SARS-CoV Urbani / Binding of antibody 03-018 to looped/cyclic peptides of the N protein of SARS-CoV Urbani: unit not given here

## ADMDDFSRQLQNSMS
[1]
  Binding of serum 1a to linear peptides of protein N of SARS-CoV Urbani: 0.3
  Binding of serum 1a to looped/cyclic peptides of protein N of SARS-CoV Urbani: 0.3
  Binding of serum 1b to linear peptides of protein N of SARS-CoV Urbani: 0.2
  Binding of serum 1b to looped/cyclic peptides of protein N of SARS-CoV Urbani: 0.2
  Binding of serum 2 to linear peptides of protein N of SARS-CoV Urbani: 0.2
  Binding of serum 2 to looped/cyclic peptides of protein N of SARS-CoV Urbani: 0.2
  Binding of serum 6 to linear peptides of protein N of SARS-CoV Urbani: 1.5
  Binding of serum 6 to looped/cyclic peptides of protein N of SARS-CoV Urbani: 0.0
  Binding of serum 37 to linear peptides of protein N of SARS-CoV Urbani: 0.7
  Binding of serum 37 to looped/cyclic peptides of protein N of SARS-CoV Urbani: 0.4
  Binding of serum 62 to linear peptides of protein N of SARS-CoV Urbani: 0.6
  Binding of serum 62 to looped/cyclic peptides of protein N of SARS-CoV Urbani: 0.3
  Binding of serum London to linear peptides of protein N of SARS-CoV Urbani: 0.8
  Binding of serum London to looped/cyclic peptides of protein N of SARS-CoV Urbani: 0.2
  Binding of serum SARS-green to linear peptides of protein N of SARS-CoV Urbani: 0.3
  Binding of serum SARS-green to looped/cyclic peptides of protein N of SARS-CoV Urbani: 0.1
  Binding of serum SARS-yellow to linear peptides of protein N of SARS-CoV Urbani: 0.7
  Binding of serum SARS-yellow to looped/cyclic peptides of protein N of SARS-CoV Urbani: 0.2
[2]
  Control Serum Blood-Bank Looped peptides: 0.4
  Control serum Blood-bank linear peptides: 0.8
  Control serum LUMC linear peptides: 0.7
  Control serum LUMC looped peptides: 0.2
[3]
  Binding of a rabbit serum to linear peptides of protein N of SARS-CoV Urbani (Rabbit serum linear peptides): 0.2
  Binding of a rabbit serum to looped/cyclic peptides of protein N of SARS-CoV Urbani (Rabbit serum looped peptides): 0.4
[4]
  Binding of antibody 03-018 to linear peptides of the N protein of SARS-CoV Urbani: 0.1
  Binding of antibody 03-018 to looped/cyclic peptides of the N protein of SARS-CoV Urbani: 0.1

## GTRNPNNNAATVLQL
[1]
  Binding of serum 1a to linear peptides of protein N of SARS-CoV Urbani: 0.3
  Binding of serum 1a to looped/cyclic peptides of protein N of SARS-CoV Urbani: 0.4
  Binding of serum 1b to linear peptides of protein N of SARS-CoV Urbani: 0.1
  Binding of serum 1b to looped/cyclic peptides of protein N of SARS-CoV Urbani: 0.3
  Binding of serum 2 to linear peptides of protein N of SARS-CoV Urbani: 0.3
  Binding of serum 2 to looped/cyclic peptides of protein N of SARS-CoV Urbani: 0.7
  Binding of serum 6 to linear peptides of protein N of SARS-CoV Urbani: 0.2
  Binding of serum 6 to looped/cyclic peptides of protein N of SARS-CoV Urbani: 0.4
  Binding of serum 37 to linear peptides of protein N of SARS-CoV Urbani: 0.7
  Binding of serum 37 to looped/cyclic peptides of protein N of SARS-CoV Urbani: 0.9
  Binding of serum 62 to linear peptides of protein N of SARS-CoV Urbani: 0.7
  Binding of serum 62 to looped/cyclic peptides of protein N of SARS-CoV Urbani: 0.9
  Binding of serum London to linear peptides of protein N of SARS-CoV Urbani: 0.5
  Binding of serum London to looped/cyclic peptides of protein N of SARS-CoV Urbani: 0.5
  Binding of serum SARS-green to linear peptides of protein N of SARS-CoV Urbani: 0.3
  Binding of serum SARS-green to looped/cyclic peptides of protein N of SARS-CoV Urbani: 0.6
  Binding of serum SARS-yellow to linear peptides of protein N of SARS-CoV Urbani: 0.6
  Binding of serum SARS-yellow to looped/cyclic peptides of protein N of SARS-CoV Urbani: 0.5
[2]
  Binding of Control Serum Blood-Bank to Looped peptides: 1.0
  Binding of Control serum Blood-bank to linear peptides: 0.8
  Binding of Control serum LUMC to linear peptides: 0.8
  Binding of Control serum LUMC to looped peptides: 0.8
[3]
  Binding of a rabbit serum to linear peptides of protein N of SARS-CoV Urbani (Rabbit serum linear peptides): 0.1
  Binding of a rabbit serum to looped/cyclic peptides of protein N of SARS-CoV Urbani (Rabbit serum looped peptides): 0.6
[4]
  Binding of antibody 03-018 to linear peptides of the N protein of SARS-CoV Urbani: 0.1
  Binding of antibody 03-018 to looped/cyclic peptides of the N protein of SARS-CoV Urbani: 0.3

## PRWYFYYLGTGPEAS
[1]
  Binding of serum 1a to linear peptides of protein N of SARS-CoV Urbani: 0.3
  Binding of serum 1a to looped/cyclic peptides of protein N of SARS-CoV Urbani: 0.4
  Binding of serum 1b to linear peptides of protein N of SARS-CoV Urbani: 0.2
  Binding of serum 1b to looped/cyclic peptides of protein N of SARS-CoV Urbani: 0.3
  Binding of serum 2 to linear peptides of protein N of SARS-CoV Urbani: 0.2
  Binding of serum 2 to looped/cyclic peptides of protein N of SARS-CoV Urbani: 0.5
  Binding of serum 6 to linear peptides of protein N of SARS-CoV Urbani: 0.2
  Binding of serum 6 to looped/cyclic peptides of protein N of SARS-CoV Urbani: 0.3
  Binding of serum 37 to linear peptides of protein N of SARS-CoV Urbani: 0.9
  Binding of serum 37 to looped/cyclic peptides of protein N of SARS-CoV Urbani: 1.0
  Binding of serum 62 to linear peptides of protein N of SARS-CoV Urbani: 0.7
  Binding of serum 62 to looped/cyclic peptides of protein N of SARS-CoV Urbani: 0.8
  Binding of serum London to linear peptides of protein N of SARS-CoV Urbani: 0.5
  Binding of serum London to looped/cyclic peptides of protein N of SARS-CoV Urbani: 0.5
  Binding of serum SARS-green to linear peptides of protein N of SARS-CoV Urbani: 0.5
  Binding of serum SARS-green to looped/cyclic peptides of protein N of SARS-CoV Urbani: 0.9
  Binding of serum SARS-yellow to linear peptides of protein N of SARS-CoV Urbani: 0.6
  Binding of serum SARS-yellow to looped/cyclic peptides of protein N of SARS-CoV Urbani: 0.8
[2]
  Binding of Control Serum Blood-Bank to Looped peptides: 0.7
  Binding of Control serum Blood-bank to linear peptides: 0.7
  Binding of Control serum LUMC to linear peptides: 0.6
  Binding of Control serum LUMC to looped peptides: 0.7
[3]
  Binding of a rabbit serum to linear peptides of protein N of SARS-CoV Urbani (Rabbit serum linear peptides): 0.2
  Binding of a rabbit serum to looped/cyclic peptides of protein N of SARS-CoV Urbani (Rabbit serum looped peptides): 0.6
[4]
  Binding of antibody 03-018 to linear peptides of the N protein of SARS-CoV Urbani: 0.1
  Binding of antibody 03-018 to looped/cyclic peptides of the N protein of SARS-CoV Urbani: 0.2
